No end group written: not given here.
Experiments:
[1] = test system: 14-3-3 proteins / 25 kDa protein in Jurkat cell lysates; test: photo-affinity pull down, Jurkat cell lysate, with competition; type: binding, human; settings: competitor at 20-, 60- and 100-fold molar excess of biotinylated probe [T20K,W23Bpa]kB1, silver-stained gel
Description: Splenocytes or Jurkat cells were lysed with 25 mM Tris-HCl pH 7.4, 40 mM KCl, 2.5 mM MgSO4 2.5 mM CaCl2, 2% (v/v) glycerol, 1 mM EDTA under repeated freeze-thaw cycles and 10 min sonification. All experiments were performed in buffer with 1x complete protease inhibitor cocktail (Hoffman-La Roche, Basel, Switzerland). Cell membranes and debris were pelleted for 30 min at 16,000 × g and the supernatant corresponds to the “soluble cell lysate.” Protein concentration was determined using a bicinchoninic acid assay kit (Thermo Scientific) and DTT (1 mM) was added to keep redox potential constant during binding experiments. Photo-affinity pull down samples were submitted to denaturing sodium dodecyl sulfate polyacrylamide gel electrophoresis (PAGE). For immunoblotting according to earlier published protocols (Gruber et al., [2007]; Bergmayr et al., [2013]) proteins were semi-dry transferred onto a nitrocellulose membrane 0.45 μM (Amersham Protran, GE Healthcare, Austria) using a Fast Semi-dry blotter (Bio-Rad) at 0.25 mA per gel for 1 h. […] Chemo-luminescence signals were detected on an imaging system FluorChem HD2 (Alpha Innotech, CA, United States). […] Pixel quantification was carried out using ImageJ v1.47 (National Institute for Health). […]

[2] = test system: 14-3-3 proteins / 25 kDa protein band in murine splenocyte lysates; test: photo-affinity pull down, splenocyte lysate, with competitors; type: binding, mouse; settings: competitors at 100-fold molar excess versus bait [T20K,W23Bpa]kB1, in-gel digestion and proteomics
Description: Splenocytes or Jurkat cells were lysed with 25 mM Tris-HCl pH 7.4, 40 mM KCl, 2.5 mM MgSO4 2.5 mM CaCl2, 2% (v/v) glycerol, 1 mM EDTA under repeated freeze-thaw cycles and 10 min sonification. All experiments were performed in buffer with 1x complete protease inhibitor cocktail (Hoffman-La Roche, Basel, Switzerland). Cell membranes and debris were pelleted for 30 min at 16,000 × g and the supernatant corresponds to the “soluble cell lysate.” Protein concentration was determined using a bicinchoninic acid assay kit (Thermo Scientific) and DTT (1 mM) was added to keep redox potential constant during binding experiments. Photo-affinity pull down samples were submitted to denaturing sodium dodecyl sulfate polyacrylamide gel electrophoresis (PAGE). For immunoblotting according to earlier published protocols (Gruber et al., [2007]; Bergmayr et al., [2013]) proteins were semi-dry transferred onto a nitrocellulose membrane 0.45 μM (Amersham Protran, GE Healthcare, Austria) using a Fast Semi-dry blotter (Bio-Rad) at 0.25 mA per gel for 1 h. Primary rabbit anti-GFP antibody (1:5,000) was from Invitrogen (A6455), rabbit anti-GST antibody (1:2,500) from Abcam (ab9085), and mouse anti-human calcineurin subunit A antibody (1:2,000) clone BE2.1 from eBioscience. Secondary ECL anti-mouse (NA931V) or ECL anti-rabbit (NA934VS) IgG antibodies (1:10,000) were conjugated with horse radish peroxidase (GE Healthcare). Chemo-luminescence signals were detected on an imaging system FluorChem HD2 (Alpha Innotech, CA, United States). For silver staining protein gels were treated immediately after electrophoresis with fixing solution EtOH/ddH2O/acetic acid 50/40/10% (v/v/v) for 20 min. Gels had to be washed acid free, first with 50% (v/v) EtOH for 10 min and with ddH2O for 2 h. Gels were exposed to sensitization buffer 0.025% Na2S2O3 in ddH2O for 3 min, followed by 2 min wash with ddH2O. Gels were silver loaded using a 0.15% AgNO3 solution for 45 min in the dark. The protein bands were stained in development buffer formaldehyde/Na2CO3 0.04/2% (v/w) under rigorous shaking. The reaction was quenched with 5% (v/v) acetic acid solution and the gels were stored until further processing in the stopping buffer at 4°C. Pixel quantification was carried out using ImageJ v1.47 (National Institute for Health).
Biotin-LC-LC-labeled (ThermoFisher) peptides (1–5 nmoles) with or without (non-biotinylated) competitor (20–100-fold molar excess) were incubated with Jurkat cell or murine splenocyte cell lysates (150–500 μg proteins) for 2 h at 4°C in the presence of protease inhibitors. UV-activation of photo-crosslinking moiety benzophenone was induced by irradiation at 360 nm on ice for 15 min (Stratalinker, Stratagene, CA, United States). […]

CGETCVGGTCNTPGCKCSWPVCTRNGLPV (also: bicyclic or more (positions not given here)) [[T20K]kB1, synthetic cyclotide drug candidate, Thr20 to Lys mutant of kalata B1]
effect of competitor on 25 kDa protein band intensity [1]: revealed an effect on the band intensity of a 25 kDa protein | competition effect for 14-3-3 proteins (order) [2]: competition effect in the order [T20K]kB1 < [T20K,W23Bpa]kB1 < R18
